Data published in ChEMBL document CHEMBL3885861, “Open TG-GATES”.

Species: Rattus norvegicus
Experiment: Open TG-GATES - Regimen: Single
Format: toxicity, organism-based, Sprague-Dawley
Set-up: regimen Single, gender Male, age 6 weeks
Details: in vivo, po, route gavage; for Bas / Eos / Fbg / Hb / Ht / Lym / MCHC / Mono / Plat / RBC / Ret / WBC / MCH / Neu / PT: tissue Blood; for KIDNEY_L / KIDNEY_R / KIDNEY_TOTAL: tissue Kidney; for LIVER: tissue Liver
[1] = 40 mg/kg, 24 h, tissue Plasma, dose level Low
[2] = 120 mg/kg, 3 h, dose level Middle
[3] = 120 mg/kg, 3 h, tissue Plasma, dose level Middle
[4] = 120 mg/kg, 6 h, dose level Middle
[5] = 120 mg/kg, 6 h, tissue Plasma, dose level Middle
[6] = 120 mg/kg, 9 h, dose level Middle
[7] = 120 mg/kg, 9 h, tissue Plasma, dose level Middle
[8] = 120 mg/kg, 24 h, dose level Middle
[9] = 120 mg/kg, 24 h, tissue Plasma, dose level Middle
[10] = 400 mg/kg, 3 h, dose level High
[11] = 400 mg/kg, 3 h, tissue Plasma, dose level High
[12] = 400 mg/kg, 6 h, dose level High
[13] = 400 mg/kg, 6 h, tissue Plasma, dose level High
[14] = 400 mg/kg, 9 h, dose level High
[15] = 400 mg/kg, 9 h, tissue Plasma, dose level High
[16] = 400 mg/kg, 24 h, dose level High
[17] = 400 mg/kg, 24 h, tissue Plasma, dose level High

SMILES: CCC(C)(C)C(=O)O[C@H]1C[C@@H](C)C=C2C=C[C@H](C)[C@H](CC[C@@H]3C[C@@H](O)CC(=O)O3)[C@H]21 [SIMVASTATIN]
- TC [1]: 80.8 mg/dL
- TG [1]: 87.4 mg/dL
- TP [1]: 5.4 g/dL
- gamma-GTP [1]: 1.8 IU/L
- TERMINAL_BW [2]: 200.4 g
- Bas [2]: 0%
- Eos [2]: 1%
- Fbg [2]: 194.4 mg/dL
- Hb [2]: 12.5 g/dL
- Ht [2]: 37.9%
- Lym [2]: 81.8%
- MCHC [2]: 32.9%
- Mono [2]: 6.4%
- Plat [2]: 111.3 x10_4/uL
- RBC [2]: 573.6 x10_4/ul
- Ret [2]: 9.1%
- WBC [2]: 131.2 x10_2/uL
- KIDNEY_L [2]: 0.9 g
- KIDNEY_R [2]: 1 g
- KIDNEY_TOTAL [2]: 1.9 g
- LIVER [2]: 9.6 g
- ALP [3]: 1022 IU/L
- ALT [3]: 34.2 IU/L
- AST [3]: 66.6 IU/L
- BUN [3]: 11.6 mg/dL
- CRE [3]: 0.5 mg/dL
- DBIL [3]: 0.032 mg/dL
- IP [3]: 8.9 mg/dL
- K [3]: 4.7 meq/L
- LDH [3]: 117.2 IU/L
- Na [3]: 137.8 meq/L
- PL [3]: 134.8 mg/dL
- RALB [3]: 3.5 g/dL
- TBIL [3]: 0.3 mg/dL
- TC [3]: 74 mg/dL
- TG [3]: 56 mg/dL
- TP [3]: 5.5 g/dL
- gamma-GTP [3]: 1.6 IU/L
- TERMINAL_BW [4]: 200.1 g
- Bas [4]: 0%
- Eos [4]: 0.6%
- Fbg [4]: 203.2 mg/dL
- Hb [4]: 12.9 g/dL
- Ht [4]: 39.4%
- Lym [4]: 77.6%
- MCH [4]: 21.6 pg
- MCHC [4]: 32.9%
- Mono [4]: 6%
- Neu [4]: 15.8%
- PT [4]: 11.9 s
- Plat [4]: 114.7 x10_4/uL
- RBC [4]: 600.4 x10_4/ul
- Ret [4]: 8.4%
- WBC [4]: 123.6 x10_2/uL
- KIDNEY_L [4]: 0.9 g
- KIDNEY_R [4]: 0.9 g
- KIDNEY_TOTAL [4]: 1.8 g
- LIVER [4]: 8.9 g
- ALP [5]: 912.2 IU/L
- ALT [5]: 28.6 IU/L
- AST [5]: 57.2 IU/L
- CRE [5]: 0.5 mg/dL
- DBIL [5]: 0.086 mg/dL
- IP [5]: 9.6 mg/dL
- K [5]: 4.5 meq/L
- LDH [5]: 94 IU/L
- Na [5]: 137.6 meq/L
- PL [5]: 119 mg/dL
- RALB [5]: 3.5 g/dL
- TBIL [5]: 0.4 mg/dL
- TC [5]: 66.4 mg/dL
- TG [5]: 44 mg/dL
- TP [5]: 5.4 g/dL
- gamma-GTP [5]: 1.4 IU/L
- TERMINAL_BW [6]: 199.1 g
- Bas [6]: 0%
- Eos [6]: 1%
- Fbg [6]: 217.2 mg/dL
- Hb [6]: 12.9 g/dL
- Ht [6]: 39.5%
- Lym [6]: 77%
- MCH [6]: 21.6 pg
- MCHC [6]: 32.6%
- Mono [6]: 6%
- Neu [6]: 16.6%
- PT [6]: 11.8 s
- Plat [6]: 106.6 x10_4/uL
- RBC [6]: 598.2 x10_4/ul
- Ret [6]: 9%
- WBC [6]: 82.6 x10_2/uL
- KIDNEY_L [6]: 0.9 g
- KIDNEY_R [6]: 0.9 g
- KIDNEY_TOTAL [6]: 1.8 g
- LIVER [6]: 8.3 g
- ALP [7]: 788.6 IU/L
- ALT [7]: 30.8 IU/L
- AST [7]: 57.4 IU/L
- CRE [7]: 0.5 mg/dL
- DBIL [7]: 0.026 mg/dL
- K [7]: 4.7 meq/L
- LDH [7]: 88.2 IU/L
- Na [7]: 137.6 meq/L
- PL [7]: 119.4 mg/dL
- RALB [7]: 3.7 g/dL
- TBIL [7]: 0.3 mg/dL
- TC [7]: 70.6 mg/dL
- TG [7]: 29.6 mg/dL
- TP [7]: 5.4 g/dL
- gamma-GTP [7]: 1 IU/L
- TERMINAL_BW [8]: 207.4 g
- Bas [8]: 0%
- Eos [8]: 1%
- Fbg [8]: 209.2 mg/dL
- Hb [8]: 12.8 g/dL
- Ht [8]: 39.1%
- Lym [8]: 79.2%
- MCHC [8]: 32.8%
- Mono [8]: 6.2%
- Neu [8]: 14%
- Plat [8]: 123 x10_4/uL
- RBC [8]: 586 x10_4/ul
- Ret [8]: 8.3%
- WBC [8]: 87 x10_2/uL
- KIDNEY_L [8]: 1 g
- KIDNEY_R [8]: 1 g
- KIDNEY_TOTAL [8]: 2 g
- ALP [9]: 811 IU/L
- ALT [9]: 44 IU/L
- AST [9]: 67.8 IU/L
- BUN [9]: 18 mg/dL
- CRE [9]: 0.5 mg/dL
- DBIL [9]: 0.044 mg/dL
- IP [9]: 7.5 mg/dL
- K [9]: 4.7 meq/L
- LDH [9]: 127.8 IU/L
- Na [9]: 139.6 meq/L
- PL [9]: 129.4 mg/dL
- RALB [9]: 3.9 g/dL
- TBIL [9]: 0.4 mg/dL
- TC [9]: 69.4 mg/dL
- TP [9]: 5.5 g/dL
- gamma-GTP [9]: 2.4 IU/L
- TERMINAL_BW [10]: 201.6 g
- Bas [10]: 0%
- Eos [10]: 0.8%
- Fbg [10]: 211.2 mg/dL
- Hb [10]: 12.2 g/dL
- Ht [10]: 37.3%
- Lym [10]: 80.4%
- MCH [10]: 21.5 pg
- MCHC [10]: 32.8%
- Mono [10]: 8.4%
- Neu [10]: 10.8%
- PT [10]: 11.3 s
- Plat [10]: 110.1 x10_4/uL
- RBC [10]: 569 x10_4/ul
- Ret [10]: 10.9%
- WBC [10]: 116.1 x10_2/uL
- KIDNEY_L [10]: 1 g
- KIDNEY_R [10]: 1 g
- KIDNEY_TOTAL [10]: 2 g
- LIVER [10]: 9.3 g
- ALP [11]: 914.4 IU/L
- ALT [11]: 30.8 IU/L
- AST [11]: 61.6 IU/L
- BUN [11]: 11.8 mg/dL
- CRE [11]: 0.5 mg/dL
- DBIL [11]: 0.062 mg/dL
- IP [11]: 8.3 mg/dL
- K [11]: 4.7 meq/L
- LDH [11]: 107.8 IU/L
- Na [11]: 136.8 meq/L
- PL [11]: 131.4 mg/dL
- RALB [11]: 3.6 g/dL
- TBIL [11]: 0.3 mg/dL
- TC [11]: 74.2 mg/dL
- TG [11]: 37 mg/dL
- TP [11]: 5.6 g/dL
- gamma-GTP [11]: 1.2 IU/L
- TERMINAL_BW [12]: 205 g
- Bas [12]: 0%
- Eos [12]: 1%
- Fbg [12]: 209.4 mg/dL
- Hb [12]: 12.5 g/dL
- Ht [12]: 38.1%
- Lym [12]: 80.8%
- MCH [12]: 21.6 pg
- MCHC [12]: 32.7%
- Mono [12]: 4.2%
- Neu [12]: 14.6%
- PT [12]: 12.1 s
- Plat [12]: 109.4 x10_4/uL
- RBC [12]: 578.2 x10_4/ul
- Ret [12]: 11%
- KIDNEY_L [12]: 1 g
- KIDNEY_R [12]: 1 g
- KIDNEY_TOTAL [12]: 1.9 g
- LIVER [12]: 8.8 g
- ALP [13]: 979 IU/L
- ALT [13]: 29.4 IU/L
- AST [13]: 60.2 IU/L
- BUN [13]: 9.8 mg/dL
- CRE [13]: 0.5 mg/dL
- DBIL [13]: 0.078 mg/dL
- IP [13]: 9.6 mg/dL
- K [13]: 4.9 meq/L
- LDH [13]: 86 IU/L
- Na [13]: 137.2 meq/L
- PL [13]: 108 mg/dL
- RALB [13]: 3.4 g/dL
- TBIL [13]: 0.4 mg/dL
- TC [13]: 59 mg/dL
- TG [13]: 41.2 mg/dL
- TP [13]: 5.5 g/dL
- gamma-GTP [13]: 1.4 IU/L
- TERMINAL_BW [14]: 198.2 g
- Bas [14]: 0%
- Eos [14]: 0.6%
- Fbg [14]: 204.6 mg/dL
- Hb [14]: 12.5 g/dL
- Ht [14]: 37.7%
- Lym [14]: 80.8%
- MCHC [14]: 33.1%
- Mono [14]: 3.2%
- Neu [14]: 15.2%
- PT [14]: 12.6 s
- Plat [14]: 110.7 x10_4/uL
- RBC [14]: 576.4 x10_4/ul
- Ret [14]: 9.6%
- WBC [14]: 131.2 x10_2/uL
- KIDNEY_L [14]: 0.9 g
- KIDNEY_R [14]: 0.9 g
- KIDNEY_TOTAL [14]: 1.9 g
- LIVER [14]: 7.8 g
- ALP [15]: 778 IU/L
- ALT [15]: 30.2 IU/L
- AST [15]: 61.2 IU/L
- BUN [15]: 10.2 mg/dL
- CRE [15]: 0.6 mg/dL
- DBIL [15]: 0.066 mg/dL
- GLC [15]: 209 mg/dL
- K [15]: 5.2 meq/L
- LDH [15]: 86 IU/L
- Na [15]: 137.4 meq/L
- PL [15]: 100 mg/dL
- RALB [15]: 3.5 g/dL
- TBIL [15]: 0.3 mg/dL
- TC [15]: 56.8 mg/dL
- TG [15]: 24 mg/dL
- TP [15]: 5.1 g/dL
- gamma-GTP [15]: 1.2 IU/L
- TERMINAL_BW [16]: 201.5 g
- Bas [16]: 0%
- Eos [16]: 0.8%
- Fbg [16]: 218.6 mg/dL
- Hb [16]: 13.9 g/dL
- Ht [16]: 42.3%
- Lym [16]: 80.6%
- MCHC [16]: 32.8%
- Mono [16]: 4.6%
- Neu [16]: 14.4%
- PT [16]: 11.3 s
- Plat [16]: 125.3 x10_4/uL
- RBC [16]: 647.8 x10_4/ul
- Ret [16]: 7.9%
- WBC [16]: 86.8 x10_2/uL
- KIDNEY_L [16]: 1 g
- KIDNEY_R [16]: 1 g
- KIDNEY_TOTAL [16]: 1.9 g
- LIVER [16]: 9.9 g
- ALP [17]: 760.8 IU/L
- ALT [17]: 99 IU/L
- AST [17]: 81.6 IU/L
- BUN [17]: 15.2 mg/dL
- CRE [17]: 0.6 mg/dL
- DBIL [17]: 0.07 mg/dL
- IP [17]: 7.1 mg/dL
- K [17]: 5.2 meq/L
- LDH [17]: 117.6 IU/L
- Na [17]: 137.4 meq/L
- PL [17]: 93.6 mg/dL
- RALB [17]: 3.8 g/dL
- TBIL [17]: 0.4 mg/dL
- TC [17]: 53.6 mg/dL
- TG [17]: 38.4 mg/dL
- TP [17]: 5.4 g/dL
- gamma-GTP [17]: 1.4 IU/L
